Here are results for eight compounds from US7329653B2, “Cyclohexylphenyl vasopressin agonists” (Wyeth, priority 2001, dated 2008).

The melting point is the temperature, or range, at which the solid turns liquid.

The target in one data set is T1, vasopressin V2 receptors (Rattus norvegicus, UniProt Q00788).
T1 construct: Male or female normotensive Sprague-Dawley rats; tissue Charles River Laboratories, Inc; host or cells: whole animal (Sprague-Dawley rat; kidney collecting ducts per the background)
Description: Vasopressin V2 agonist effects in normal conscious water-loaded rats. The class given is in vivo. The settings on record: vs control; oral dose of 10 mg/Kg; urine collected for four hours; Sprague-Dawley (CD) rats. The text has this:
Vasopressin V2 Agonist Effects of Test Compounds in Normal Conscious Water-Loaded Rats
Male or female normotensive Sprague-Dawley rats (Charles River Laboratories, Inc., Kingston, N.Y.) of 350-500 g body weight were supplied with standard rodent diet (Purina Rodent Lab. Chow 5001) and water ad libitum. On the day of test, rats were placed individually into metabolic cages equipped with devices to separate the feces from the urine and containers for collection of urine. A test compound or a reference agent was given at an oral dose of 10 mg/Kg in a volume of 10 mL/Kg. The vehicle used was 2.5% preboiled corn starch in 20% dimethylsulfoxide (DMSO). Thirty minutes after dosing the test compound, rats were gavaged with water at 30 mL/Kg into the stomach using a feeding needle. During the test, rats were not provided with water or food. Urine was collected for four hours after dosing of the test compound. At the end of four hours, urine volume was measured. Urinary osmolality was determined using a Fiske One-Ten Osmometer (Fiske Associates, Norwood, Mass., 02062) or an Advanced CRYOMATIC Osmometer, Model 3C2 (Advanced Instruments, Norwood, Mass.). Determinations of Na^+, K^+ and Cl^− ion were carried out using ion specific electrodes in a Beckman SYNCHRON EL-ISE Electrolyte System analyzer. The urinary osmolality should increase proportionally. In the screening test, two rats were used for each compound. If the difference in the urine volume of the two rats was greater than 50%, a third rat was used.

T1 sequence (Q00788 whole entry): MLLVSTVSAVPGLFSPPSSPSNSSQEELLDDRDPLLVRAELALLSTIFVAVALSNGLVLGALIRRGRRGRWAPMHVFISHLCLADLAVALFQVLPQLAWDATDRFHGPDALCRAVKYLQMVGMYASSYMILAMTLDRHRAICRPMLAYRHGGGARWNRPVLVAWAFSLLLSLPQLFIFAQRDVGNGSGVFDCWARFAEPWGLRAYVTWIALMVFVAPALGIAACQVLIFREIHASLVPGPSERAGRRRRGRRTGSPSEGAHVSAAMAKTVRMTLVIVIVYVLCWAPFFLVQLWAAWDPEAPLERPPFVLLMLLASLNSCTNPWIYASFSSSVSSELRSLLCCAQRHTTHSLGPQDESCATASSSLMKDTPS

`O=C(c1ccc(C2CCCCC2)cc1)N1Cc2cccn2Cc2ccccc21` [Example 1, 10-(4-Cyclohexyl-benzoyl)-10,11-dihydro-5H-pyrrolo[2,1-c][1,4]benzodiazepine] returned a melting point of 127 to 129 °C. Also, at vasopressin V2 receptors, the “Urinary Osmolality (% increase)” value was found to be 232 % increase and the “Urine Volume (% decrease)” value was 61 % decrease.

In turn, `O=C(c1ccc(C2CCCCC2)cc1)N1Cc2cccnc2Nc2ccccc21` [Example 2, (4-Cyclohexyl-phenyl)-(5,11-dihydro-pyrido[2,3-b][1,5]benzodiazepin-6-yl)-methanone] showed a melting point of 230 to 233 °C. In addition, on vasopressin V2 receptors, the “Urinary Osmolality (% increase)” value is given as 51 % increase and the “Urine Volume (% decrease)” value was 48 % decrease.

`O=C(c1ccc(C2CCCCC2)cc1)N1Cc2ccccc2Nc2ccccc21` [Example 5, (4-Cyclohexyl-phenyl)-(5,11-dihydro-10H-dibenzo[b,e][1,4]diazepin-10-yl)methanone] returned a melting point of 175 to 176 °C.

As to `O=C(c1ccc(C2CCCCC2)cc1)N1Cc2cccn2Cc2ncccc21` [Example 7, (4-Cyclohexyl-phenyl)-(4H,10H-3a,5,9-triaza-benzo[f]azulen-9-yl)-methanone], the melting point fell in the range of 150 to 152 °C.

As for `CN1c2ccccc2CN(C(=O)c2ccc(C3CCCCC3)cc2)c2ccccc21` [Example 6, (4-Cyclohexyl-phenyl)-(5,11-dihydro-5-methyl-10H-dibenzo[b,e][1,4]diazepin-10-yl)-methanone], the melting point was in the range of 111 to 112 °C.

As to `CN1c2ccccc2N(C(=O)c2ccc(C3CCCCC3)cc2)Cc2cccnc21` [Example 3, (4-Cyclohexyl-phenyl)-(5,11-dihydro-11-methyl-5H-pyrido[2,3-b][1,5]benzodiazepin-6-yl)-methanone], on vasopressin V2 receptors, the “Urinary Osmolality (% increase)” value came to 129 % increase and the “Urine Volume (% decrease)” value is on record as 51 % decrease.

Regarding `O=C(c1ccc(C2CCCCC2)cc1)N1CCCCc2sccc21` [Example 8, (4-Cyclohexyl-phenyl)-(5,6,7,8-tetrahydro-thieno[3,2-b]azepin-4-yl)-methanone], the melting point lay in the range of 145 to 148 °C.

Turning to `CCN1c2ccccc2N(C(=O)c2ccc(C3CCCCC3)cc2)Cc2cccnc21` [Example 4, (4-Cyclohexyl-phenyl)-(5,11-dihydro-11-ethyl-5H-pyrido[2,3-b][1,5]benzodiazepin-6-yl)-methanone], at vasopressin V2 receptors, the “Urinary Osmolality (% increase)” value turned out to be 132 % increase and the “Urine Volume (% decrease)” value is on record as 64 % decrease.
